Assay [1] deals with T1, Mu-type opioid receptor (Homo sapiens, UniProt P35372). The assay can be described thus: Agonist activity at human mu opioid receptor expressed in CHO-K1 cells assessed as inhibition of forskolin-stimulated cAMP accumulation by HitHunter assay based luminescence analysis. It counts as functional, cell-based. A general note: Changes in cAMP serve as a functional read-out for many G protein-coupled receptors.

The target in assay [2] is 5-hydroxytryptamine receptor 2B (Homo sapiens, UniProt P41595). Briefly: Binding affinity to 5HT2B receptor (unknown origin) by radioligand displacement assay. For orientation: Loss of bound radioactivity is the signal in a displacement assay; it reports binding, not function.
Assay [3] concerns the target T2, Alpha-2C adrenergic receptor (Homo sapiens, UniProt P18825).
T2 sequence (P18825 whole entry): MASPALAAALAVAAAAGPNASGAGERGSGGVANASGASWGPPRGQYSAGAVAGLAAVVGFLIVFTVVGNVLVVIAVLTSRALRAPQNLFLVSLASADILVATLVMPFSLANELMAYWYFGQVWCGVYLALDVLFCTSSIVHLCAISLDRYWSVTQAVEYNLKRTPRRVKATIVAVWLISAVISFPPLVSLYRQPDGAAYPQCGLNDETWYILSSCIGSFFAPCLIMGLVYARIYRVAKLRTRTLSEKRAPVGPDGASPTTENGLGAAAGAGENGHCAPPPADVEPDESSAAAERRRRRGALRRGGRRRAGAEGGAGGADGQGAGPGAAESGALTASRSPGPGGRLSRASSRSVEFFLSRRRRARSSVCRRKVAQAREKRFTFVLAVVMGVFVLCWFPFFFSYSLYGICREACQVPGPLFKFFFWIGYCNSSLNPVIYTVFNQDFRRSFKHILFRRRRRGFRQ
The assay can be described thus: Binding affinity to alpha2C adrenergic receptor (unknown origin) by radioligand displacement assay.

Assay [4] concerns the target 5-hydroxytryptamine receptor 5A (Homo sapiens, UniProt P47898). The assay can be described thus: Binding affinity to 5HT5A receptor (unknown origin) by radioligand displacement assay.
Assay [5] deals with T1, Mu-type opioid receptor. The assay can be described thus: Displacement of [3H]DAMGO from mu opioid receptor (unknown origin) expressed in CHO cell membrane by competitive radioligand binding assay. The class given is cell membranes.
Assay [6] has as its target T3, 5-hydroxytryptamine receptor 3A (Homo sapiens, UniProt P46098).
T3 sequence (P46098 whole entry): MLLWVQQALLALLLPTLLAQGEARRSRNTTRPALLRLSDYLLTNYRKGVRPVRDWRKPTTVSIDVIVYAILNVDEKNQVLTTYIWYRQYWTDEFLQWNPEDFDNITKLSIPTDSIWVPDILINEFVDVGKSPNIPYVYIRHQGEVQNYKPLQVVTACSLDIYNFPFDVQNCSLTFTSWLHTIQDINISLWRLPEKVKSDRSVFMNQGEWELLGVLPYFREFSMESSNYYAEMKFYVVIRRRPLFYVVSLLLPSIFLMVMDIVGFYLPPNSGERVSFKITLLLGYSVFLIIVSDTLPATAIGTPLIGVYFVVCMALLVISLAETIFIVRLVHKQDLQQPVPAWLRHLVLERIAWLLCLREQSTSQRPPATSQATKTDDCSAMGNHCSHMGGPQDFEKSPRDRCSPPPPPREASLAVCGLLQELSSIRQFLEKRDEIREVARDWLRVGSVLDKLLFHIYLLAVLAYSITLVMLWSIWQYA
The assay can be described thus: Binding affinity to 5HT3 receptor (unknown origin) by radioligand displacement assay.

For assay [7], the target named is Atypical chemokine receptor 3 (Homo sapiens) (UniProt P25106). Briefly: Agonist activity at CXCR7 receptor (unknown origin) assessed as beta arrestin2 recruitment at >=3 uM by PRESTO-Tango assay. Particulars: filed as agonist. It counts as functional.
For assay [8], the target named is 5-hydroxytryptamine receptor 7 (Homo sapiens, UniProt P34969). The assay can be described thus: Binding affinity to 5HT7A receptor (unknown origin) by radioligand displacement assay.
For assay [9], the target named is T4, Alpha-2A adrenergic receptor (Homo sapiens, UniProt P08913).
T4 sequence (P08913 whole entry): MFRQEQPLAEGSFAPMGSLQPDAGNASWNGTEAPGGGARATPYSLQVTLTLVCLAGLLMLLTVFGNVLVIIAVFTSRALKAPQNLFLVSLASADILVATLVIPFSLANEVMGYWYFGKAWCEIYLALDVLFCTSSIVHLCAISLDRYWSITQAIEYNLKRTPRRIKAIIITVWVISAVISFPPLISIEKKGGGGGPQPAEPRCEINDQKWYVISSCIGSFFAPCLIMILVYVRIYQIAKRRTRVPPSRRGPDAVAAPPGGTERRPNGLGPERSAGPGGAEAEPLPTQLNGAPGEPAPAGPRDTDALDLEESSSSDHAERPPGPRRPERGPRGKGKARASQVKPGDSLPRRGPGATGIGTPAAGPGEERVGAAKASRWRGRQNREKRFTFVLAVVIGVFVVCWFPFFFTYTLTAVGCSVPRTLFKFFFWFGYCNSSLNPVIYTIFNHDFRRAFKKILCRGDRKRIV
Briefly: Binding affinity to alpha2A adrenergic receptor (unknown origin) by radioligand displacement assay.

For assay [10], the target named is 5-hydroxytryptamine receptor 2A (Homo sapiens, UniProt P28223).
Assay [11] concerns the target T5, Alpha-1B adrenergic receptor (Homo sapiens, UniProt P35368).
T5 sequence (P35368 whole entry): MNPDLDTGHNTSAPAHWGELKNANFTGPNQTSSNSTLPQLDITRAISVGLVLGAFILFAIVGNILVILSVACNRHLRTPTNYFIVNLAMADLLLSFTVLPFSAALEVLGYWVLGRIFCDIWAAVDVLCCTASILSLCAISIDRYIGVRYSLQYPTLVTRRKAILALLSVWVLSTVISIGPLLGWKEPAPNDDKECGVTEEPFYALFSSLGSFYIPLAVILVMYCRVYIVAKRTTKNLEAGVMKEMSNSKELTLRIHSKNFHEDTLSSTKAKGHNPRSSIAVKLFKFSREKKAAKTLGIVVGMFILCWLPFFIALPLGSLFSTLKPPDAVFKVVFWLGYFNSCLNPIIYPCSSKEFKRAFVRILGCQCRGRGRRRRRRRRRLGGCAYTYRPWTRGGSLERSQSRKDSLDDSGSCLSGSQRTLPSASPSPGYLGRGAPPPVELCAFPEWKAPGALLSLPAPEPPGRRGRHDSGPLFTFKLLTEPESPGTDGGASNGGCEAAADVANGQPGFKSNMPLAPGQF
The assay can be described thus: Binding affinity to alpha1B adrenergic receptor (unknown origin) by radioligand displacement assay.

Assay [12] addresses T6, Kappa-type opioid receptor (Homo sapiens, UniProt P41145). The assay can be described thus: Displacement of [3H]U69593 from kappa opioid receptor (unknown origin) expressed in human U2OS cell membrane by competitive radioligand binding assay. It counts as cell membranes.
A short description of assay [13]: Binding affinity to Sigma2 opioid receptor (unknown origin) by radioligand displacement assay. Further details: species or system Homo sapiens.
The target in assay [14] is T6, Kappa-type opioid receptor. Briefly: Binding affinity to kappa opioid receptor (unknown origin) by radioligand displacement assay.

The source made the active and inactive calls. No cut-off for these calls is given here.

One may read the EC50 as the midpoint of the concentration-response curve. What is called Ki is the equilibrium dissociation constant of an inhibitor or competing ligand from its target. A higher Ki goes with lower affinity.

For `C/C=C1/CN2CC[C@]34C(=C(C(=O)OC)[C@H]1C[C@H]23)Nc1ccc(I)cc14`, the half-maximal effective concentration (EC50) at Mu-type opioid receptor [1] was found to be 41 µM. For the same compound, the Ki in [2] was 767 nM; in assay [3] it was 2860 nM; in assay [4], 829 nM; on Mu-type opioid receptor [5] it was 3.6 µM; in assay [6], 384 nM; in assay [8], 1380 nM. Further, the Ki in [9] is 732 nM; in assay [10] it was 2310 nM; in assay [11], 2020 nM; in assay [12], 0.087 nM; in assay [13] it was 2220 nM; in [14] it was 1 nM. In addition, the Activity result in [7] is “Active; Weak Activity Compared To Vuf11207”.

The values above are taken from ChEMBL document CHEMBL6074668 (J Med Chem, 2024).
